Measured values published in patent US9295673B2, “Combination of mTOR inhibitors and P13-kinase inhibitors, and uses thereof” (Intellikine LLC, priority 2011, dated 2016).
Where two headings read alike, the source gives them in different places.

Key:
PI3K β = PI3K β (Homo sapiens, UniProt P42338); test: PI 3-Kinase (human) HTRF assay, PI3K β; details: read-out: PI3K β IC50
PI3K γ = PI3K γ (Homo sapiens, UniProt P48736); test: PI 3-Kinase (human) HTRF assay, PI3K γ
Experimental: (§1) An exemplary system is PI 3-Kinase (human) HTRF™ Assay from Upstate. […] Briefly, the assay is a time resolved FRET assay that indirectly measures PIP3 product formed by the activity of a PI3-K. The kinase reaction is performed in a microtitre plate (e.g., a 384 well microtitre plate). The total reaction volume is approximately 20 ul per well. In the first step, each well receives 2 ul of test compound in 20% dimethylsulphoxide resulting in a 2% DMSO final concentration. […] The plate is sealed and incubated for 15 minutes at room temperature. […] The plate is sealed and incubated for 1 hour at room temperature. The reaction is stopped by adding 5 ul of Stop Solution per well and then 5 ul of Detection Mix is added per well. The plate is sealed, incubated for 1 hour at room temperature, and then read on an appropriate plate reader. Data is analyzed and IC50s are generated using GraphPad Prism 5.

PI3K δ = PI3K δ (Homo sapiens, UniProt O00329); test: PI 3-Kinase (human) HTRF assay, PI3K δ
Sequence of PI3K δ (O00329 whole entry): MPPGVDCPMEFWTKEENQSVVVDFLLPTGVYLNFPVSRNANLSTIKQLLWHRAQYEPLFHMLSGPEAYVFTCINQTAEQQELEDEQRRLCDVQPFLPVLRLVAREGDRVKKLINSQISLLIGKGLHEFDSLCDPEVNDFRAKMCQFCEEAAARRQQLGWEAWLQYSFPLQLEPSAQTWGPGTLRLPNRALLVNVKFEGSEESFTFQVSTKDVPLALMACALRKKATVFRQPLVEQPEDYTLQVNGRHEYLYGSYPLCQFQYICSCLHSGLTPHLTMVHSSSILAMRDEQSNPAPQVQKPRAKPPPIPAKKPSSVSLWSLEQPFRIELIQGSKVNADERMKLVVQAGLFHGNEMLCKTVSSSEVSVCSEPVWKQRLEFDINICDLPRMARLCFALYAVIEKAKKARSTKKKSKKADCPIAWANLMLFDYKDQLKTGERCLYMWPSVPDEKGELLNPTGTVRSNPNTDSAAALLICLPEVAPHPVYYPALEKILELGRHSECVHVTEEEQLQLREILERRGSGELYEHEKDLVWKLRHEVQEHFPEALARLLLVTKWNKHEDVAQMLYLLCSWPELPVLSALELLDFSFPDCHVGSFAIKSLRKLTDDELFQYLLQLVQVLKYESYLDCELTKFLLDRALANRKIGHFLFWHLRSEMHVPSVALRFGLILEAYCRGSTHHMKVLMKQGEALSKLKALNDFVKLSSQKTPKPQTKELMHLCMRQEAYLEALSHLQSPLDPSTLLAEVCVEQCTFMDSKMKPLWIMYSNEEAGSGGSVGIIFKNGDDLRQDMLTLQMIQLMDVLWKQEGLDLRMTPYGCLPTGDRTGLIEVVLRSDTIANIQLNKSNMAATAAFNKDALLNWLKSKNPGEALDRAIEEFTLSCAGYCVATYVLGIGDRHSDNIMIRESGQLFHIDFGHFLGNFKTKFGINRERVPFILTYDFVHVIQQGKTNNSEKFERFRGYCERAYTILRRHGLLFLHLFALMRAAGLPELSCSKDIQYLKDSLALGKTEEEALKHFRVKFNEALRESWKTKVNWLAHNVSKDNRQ
Sequence of PI3K δ (P27986 whole entry partner): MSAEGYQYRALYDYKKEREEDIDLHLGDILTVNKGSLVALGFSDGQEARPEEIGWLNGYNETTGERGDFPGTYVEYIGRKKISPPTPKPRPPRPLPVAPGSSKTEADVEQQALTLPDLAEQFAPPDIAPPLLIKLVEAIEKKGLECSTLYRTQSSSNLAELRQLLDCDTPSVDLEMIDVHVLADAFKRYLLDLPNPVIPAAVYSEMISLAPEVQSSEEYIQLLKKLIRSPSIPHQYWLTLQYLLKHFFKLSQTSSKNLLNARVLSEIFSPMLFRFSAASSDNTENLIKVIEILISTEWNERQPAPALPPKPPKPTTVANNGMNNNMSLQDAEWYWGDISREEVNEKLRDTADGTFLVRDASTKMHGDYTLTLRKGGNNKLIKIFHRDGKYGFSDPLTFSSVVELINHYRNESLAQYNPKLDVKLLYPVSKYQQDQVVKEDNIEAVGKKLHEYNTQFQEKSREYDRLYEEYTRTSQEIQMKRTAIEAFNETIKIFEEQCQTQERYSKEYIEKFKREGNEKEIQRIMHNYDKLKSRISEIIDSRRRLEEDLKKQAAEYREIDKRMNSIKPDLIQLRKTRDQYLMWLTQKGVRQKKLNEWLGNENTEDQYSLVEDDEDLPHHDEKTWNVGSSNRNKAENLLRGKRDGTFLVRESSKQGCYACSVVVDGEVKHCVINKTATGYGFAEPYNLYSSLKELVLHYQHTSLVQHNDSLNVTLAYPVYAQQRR
Experimental: as §1

PI3K α = PI3K α (Homo sapiens, UniProt P42336); test: PI 3-Kinase (human) HTRF assay, PI3K α; details: read-out: PI3K α IC50
Sequence of PI3K α (P42336 whole entry): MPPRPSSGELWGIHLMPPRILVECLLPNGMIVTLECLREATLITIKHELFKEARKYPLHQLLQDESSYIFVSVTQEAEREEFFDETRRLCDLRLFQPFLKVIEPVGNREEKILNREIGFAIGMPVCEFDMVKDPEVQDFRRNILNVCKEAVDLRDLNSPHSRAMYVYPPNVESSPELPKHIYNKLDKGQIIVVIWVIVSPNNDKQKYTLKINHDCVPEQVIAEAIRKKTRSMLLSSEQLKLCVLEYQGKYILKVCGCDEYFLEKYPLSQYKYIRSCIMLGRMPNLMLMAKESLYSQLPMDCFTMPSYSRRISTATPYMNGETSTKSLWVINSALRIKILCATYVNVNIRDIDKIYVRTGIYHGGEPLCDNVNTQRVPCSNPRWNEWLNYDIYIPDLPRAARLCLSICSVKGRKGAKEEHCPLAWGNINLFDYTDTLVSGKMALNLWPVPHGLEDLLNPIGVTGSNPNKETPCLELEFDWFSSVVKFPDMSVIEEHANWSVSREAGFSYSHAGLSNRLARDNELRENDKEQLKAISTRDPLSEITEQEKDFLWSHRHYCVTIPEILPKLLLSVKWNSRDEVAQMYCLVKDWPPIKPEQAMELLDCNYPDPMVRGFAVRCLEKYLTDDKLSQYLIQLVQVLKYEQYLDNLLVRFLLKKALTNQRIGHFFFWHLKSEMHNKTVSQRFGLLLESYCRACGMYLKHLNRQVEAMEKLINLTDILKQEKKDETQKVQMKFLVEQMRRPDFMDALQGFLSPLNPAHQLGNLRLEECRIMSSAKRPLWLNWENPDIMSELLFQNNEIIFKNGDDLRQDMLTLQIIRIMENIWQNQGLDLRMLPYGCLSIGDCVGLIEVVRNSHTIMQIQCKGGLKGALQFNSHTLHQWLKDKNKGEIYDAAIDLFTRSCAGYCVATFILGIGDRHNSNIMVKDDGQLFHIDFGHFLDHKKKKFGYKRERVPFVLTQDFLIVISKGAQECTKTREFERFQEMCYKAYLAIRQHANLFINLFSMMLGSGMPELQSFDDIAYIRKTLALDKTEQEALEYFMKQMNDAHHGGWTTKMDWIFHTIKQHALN
Sequence of PI3K α (P27986 whole entry partner): as the sequence (P27986 whole entry partner) above

[1] = read-out: PI3K δ IC50, in vitro

Sequence of PI3K β (P42338 whole entry): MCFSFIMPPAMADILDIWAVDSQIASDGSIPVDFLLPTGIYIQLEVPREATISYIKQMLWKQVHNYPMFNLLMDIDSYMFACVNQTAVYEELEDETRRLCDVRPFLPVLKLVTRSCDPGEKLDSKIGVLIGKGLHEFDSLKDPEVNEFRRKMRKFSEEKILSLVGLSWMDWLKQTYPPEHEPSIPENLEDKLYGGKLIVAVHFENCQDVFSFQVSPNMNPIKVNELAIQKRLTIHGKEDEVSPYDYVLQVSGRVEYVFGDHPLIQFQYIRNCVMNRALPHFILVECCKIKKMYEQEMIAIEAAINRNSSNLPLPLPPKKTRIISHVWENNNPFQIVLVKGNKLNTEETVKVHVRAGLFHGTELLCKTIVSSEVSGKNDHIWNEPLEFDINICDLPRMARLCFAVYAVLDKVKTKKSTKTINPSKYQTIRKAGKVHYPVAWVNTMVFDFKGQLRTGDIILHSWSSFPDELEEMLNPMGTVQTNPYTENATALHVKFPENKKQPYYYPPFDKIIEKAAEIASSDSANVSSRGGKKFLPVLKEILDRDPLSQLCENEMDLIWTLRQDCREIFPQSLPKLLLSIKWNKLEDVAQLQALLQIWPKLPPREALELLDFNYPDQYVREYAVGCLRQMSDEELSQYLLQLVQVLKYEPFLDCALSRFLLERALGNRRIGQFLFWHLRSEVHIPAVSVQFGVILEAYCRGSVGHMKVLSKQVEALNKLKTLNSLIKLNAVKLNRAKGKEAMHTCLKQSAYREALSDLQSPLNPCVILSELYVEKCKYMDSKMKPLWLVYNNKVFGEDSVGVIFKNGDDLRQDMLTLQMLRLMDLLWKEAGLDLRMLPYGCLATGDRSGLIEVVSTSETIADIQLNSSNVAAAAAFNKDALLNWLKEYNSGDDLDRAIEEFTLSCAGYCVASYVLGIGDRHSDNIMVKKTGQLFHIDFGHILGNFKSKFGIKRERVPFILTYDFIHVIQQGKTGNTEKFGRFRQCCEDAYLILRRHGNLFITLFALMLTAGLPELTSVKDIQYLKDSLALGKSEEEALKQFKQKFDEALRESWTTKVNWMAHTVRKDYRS
Sequence of PI3K β (P27986 whole entry partner): as the sequence (P27986 whole entry partner) above
Sequence of PI3K γ (P48736 whole entry): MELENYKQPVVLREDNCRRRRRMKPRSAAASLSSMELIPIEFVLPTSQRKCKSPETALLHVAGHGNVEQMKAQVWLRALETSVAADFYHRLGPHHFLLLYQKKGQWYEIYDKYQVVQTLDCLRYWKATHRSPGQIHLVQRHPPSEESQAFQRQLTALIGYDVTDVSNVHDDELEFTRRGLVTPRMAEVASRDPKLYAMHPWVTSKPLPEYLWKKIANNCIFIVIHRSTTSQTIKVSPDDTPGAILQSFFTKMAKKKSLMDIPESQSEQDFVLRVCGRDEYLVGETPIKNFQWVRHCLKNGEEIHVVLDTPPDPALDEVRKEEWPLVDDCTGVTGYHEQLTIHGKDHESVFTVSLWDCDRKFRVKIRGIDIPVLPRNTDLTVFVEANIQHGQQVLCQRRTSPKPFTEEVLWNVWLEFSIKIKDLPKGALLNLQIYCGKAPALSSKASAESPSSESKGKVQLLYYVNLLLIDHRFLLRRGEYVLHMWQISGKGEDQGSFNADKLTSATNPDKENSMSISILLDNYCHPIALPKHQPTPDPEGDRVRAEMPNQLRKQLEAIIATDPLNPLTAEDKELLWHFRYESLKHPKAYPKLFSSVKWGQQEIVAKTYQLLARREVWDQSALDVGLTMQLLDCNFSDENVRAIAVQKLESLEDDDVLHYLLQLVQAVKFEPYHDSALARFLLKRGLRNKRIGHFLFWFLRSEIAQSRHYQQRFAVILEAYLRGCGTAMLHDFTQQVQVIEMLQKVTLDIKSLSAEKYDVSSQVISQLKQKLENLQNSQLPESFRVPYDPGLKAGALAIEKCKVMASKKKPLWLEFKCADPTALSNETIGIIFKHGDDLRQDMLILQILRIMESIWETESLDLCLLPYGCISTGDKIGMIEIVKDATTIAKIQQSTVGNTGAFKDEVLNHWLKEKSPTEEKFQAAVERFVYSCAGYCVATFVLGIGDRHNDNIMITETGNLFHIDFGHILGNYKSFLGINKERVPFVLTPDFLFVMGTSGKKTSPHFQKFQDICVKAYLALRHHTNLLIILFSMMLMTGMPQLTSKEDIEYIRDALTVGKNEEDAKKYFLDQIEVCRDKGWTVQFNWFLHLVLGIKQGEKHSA

## CC1(C)CN(C2CN(c3cnc4ccc(-c5ccc6oc(N)nc6c5)nc4n3)C2)CCN1 [Compound 603]
PI3K β; Table 4
  IC50: < 10 µM

## CN1CCC(Oc2ncnc3ccc(-c4ccc5oc(N)nc5c4)cc23)CC1 [Compound 34]
PI3K γ; read-out: PI3K γ IC50
  IC50: < 0.1 µM

## Nc1nc2cc(-c3ccc4ncc(N5CC(N6CCN(CC7CC7)CC6)C5)nc4n3)ccc2o1 [Compound 586]
PI3K γ; read-out: PI3K γ IC50, Table 4
  IC50: < 10 µM
PI3K δ; read-out: PI3K δ IC50, Table 4
  IC50: < 10 µM
PI3K β; Table 4
  IC50: < 10 µM

## CC(C)[C@H](N)C(=O)N1CCN(c2cnc3ccc(-c4ccc5oc(N)nc5c4)cc3n2)CC1 [Compound 269]
PI3K δ; read-out: PI3K δ IC50
  IC50: < 1 µM
PI3K α
  IC50: < 0.1 µM
PI3K β
  IC50: < 1 µM

## C[C@@H]1COCCN1C1CN(c2cnc3ccc(-c4ccc5oc(N)nc5c4)nc3c2)C1 [Compound 617]
PI3K β; Table 4
  IC50: < 10 µM

## C[C@@H]1CN(C2CN(c3cnc4ccc(-c5ccc6oc(N)nc6c5)nc4n3)C2)CCN1 [Compound 563]
PI3K δ; read-out: PI3K δ IC50, Table 4
  IC50: < 10 µM

## O=C(c1cnc2ccc(-c3ccc(Cl)c(NS(=O)(=O)c4ccc(F)cc4F)c3)cn12)N1CCOCC1 [Compound 461]
PI3K δ; [1]
  IC50: < 10 µM
PI3K α; in vitro
  IC50: < 1 µM
PI3K β; in vitro
  IC50: < 10 µM

## NCC(=O)N1CCN(c2cnc3ccc(-c4ccc5oc(N)nc5c4)nc3n2)CC1 [Compound 584]
PI3K δ; read-out: PI3K δ IC50, Table 4
  IC50: < 10 µM
PI3K β; Table 4
  IC50: < 10 µM

## CC(C)(N)C(=O)N1CCN(c2ccc3ncc(-c4ccc5oc(N)nc5c4)cc3n2)CC1 [Compound 633]
PI3K α; Table 4
  IC50: < 10 µM

## C[C@H]1CN(c2cnc3ccc(-c4ccc5oc(N)nc5c4)cc3n2)CCN1C [Compound 332]
PI3K δ; read-out: PI3K δ IC50
  IC50: < 10 µM
PI3K α
  IC50: < 1 µM
PI3K β
  IC50: < 0.1 µM

## Nc1nc2cc(-c3ccc4ncc(N5CC(N6CCOCC6)C5)nc4n3)ccc2o1 [Compound 556]
PI3K γ; read-out: PI3K γ IC50, Table 4
  IC50: < 10 µM
PI3K δ; read-out: PI3K δ IC50
  IC50: < 10 µM

## [2H]C1([2H])OC([2H])([2H])C([2H])([2H])N(C(=O)c2cnc3ccc(-c4ccc5oc(N)nc5c4)cn23)C1([2H])[2H] [Compound 529]
PI3K δ; [1]
  IC50: > 10 µM
PI3K α; in vitro
  IC50: < 1 µM
PI3K β; in vitro
  IC50: > 10 µM

## Nc1nc2cc(-c3ccc4ncc(N5CC(N6CCN(C7CC7)CC6)C5)cc4n3)ccc2o1 [Compound 621]
PI3K δ; read-out: PI3K δ IC50, Table 4
  IC50: < 10 µM
PI3K β; Table 4
  IC50: < 10 µM

## CC(C)N1CCN(c2cnc3ccc(-c4ccc5oc(N)nc5c4)nc3n2)CC1 [Compound 583]
PI3K δ; read-out: PI3K δ IC50, Table 4
  IC50: < 10 µM

## CN1CCN(C2CN(c3cnc4ccc(-c5ccc6oc(N)nc6c5)nc4c3)C2)CC1=O [Compound 615]
PI3K β; Table 4
  IC50: < 10 µM

## CN1CCN(c2cnc3ccc(-c4ccc5oc(N)nc5c4)nc3c2)CC1 [Compound 575]
PI3K δ; read-out: PI3K δ IC50, Table 4
  IC50: < 10 µM

## Nc1nc2cc(-c3ccc4ncc(C(=O)N5CC[C@@H](O)C5)n4c3)ccc2o1 [Compound 265]
PI3K δ; read-out: PI3K δ IC50
  IC50: < 10 µM

## [2H]c1c(-c2ccc3ncc(C(=O)N4CCOCC4)n3c2)c([2H])c2nc(N)oc2c1[2H] [Compound 531]
PI3K δ; [1]
  IC50: > 10 µM
PI3K α; in vitro
  IC50: < 0.1 µM
PI3K β; in vitro
  IC50: < 10 µM

## C[C@H]1CN(c2cnc3ccc(-c4ccc5oc(N)nc5c4)cc3n2)CCN1 [Compound 396]
PI3K γ
  IC50: < 10 µM
PI3K δ
  IC50: > 10 µM

## Nc1nc2cc(-c3ccc4ncc(C(=O)N5CC[C@H](O)C5)n4c3)ccc2o1 [Compound 264]
PI3K δ; read-out: PI3K δ IC50
  IC50: < 10 µM

## Nc1nc2cc(-c3ccc4ncc(N5CCC(O)CC5)nc4n3)ccc2o1 [Compound 596]
PI3K β; Table 4
  IC50: < 10 µM

## Nc1nc2cc(-c3ccc4ncc(C(=O)N5CCOCC5)n4c3)ccc2o1 [Compound 54]
PI3K α
  IC50: < 0.1 µM

## C[C@@H]1CN(c2cnc3ccc(-c4ccc5oc(N)nc5c4)cc3n2)CCN1 [Compound 179]
PI3K δ; read-out: PI3K δ IC50
  IC50: < 10 µM

## C[C@H]1COCCN1c1cnc2ccc(-c3ccc4oc(N)nc4c3)nc2n1 [Compound 566]
PI3K β; Table 4
  IC50: < 10 µM

## Nc1nc2cc(-c3ccc4ncc(N5CC(N6CCN(CCO)CC6)C5)cc4n3)ccc2o1 [Compound 616]
PI3K β; Table 4
  IC50: < 10 µM

## Cc1ncc(-c2ccc3ncc(C(=O)N4CCOCC4)n3c2)c2cc[nH]c12 [Compound 536]
PI3K α; in vitro
  IC50: < 10 µM

## CS(=O)(=O)N1CCN(C2CN(c3cnc4ccc(-c5ccc6oc(N)nc6c5)nc4n3)C2)CC1 [Compound 559]
PI3K δ; read-out: PI3K δ IC50, Table 4
  IC50: < 10 µM

## Nc1nc2cc(-c3ccc4ncc(N5CC(N6CCOCC6)C5)cc4n3)ccc2o1 [Compound 604]
PI3K δ; read-out: PI3K δ IC50
  IC50: < 10 µM
PI3K β; Table 4
  IC50: < 10 µM

## CC(N)C(=O)N1CCN(c2cnc3ccc(-c4ccc5oc(N)nc5c4)cc3n2)CC1 (stereo not drawn) [Compound 134]
PI3K γ; read-out: PI3K γ IC50
  IC50: < 10 µM

## CN1CCN(c2cnc3ccc(-c4ccc5oc(N)nc5c4)nc3n2)CC1 [Compound 555]
PI3K γ; read-out: PI3K γ IC50, Table 4
  IC50: < 10 µM
PI3K δ; read-out: PI3K δ IC50
  IC50: < 10 µM

## Nc1nc2cc(-c3ccc4ncc(N5CC(N6CCN(C7CC7)CC6)C5)nc4n3)ccc2o1 [Compound 620]
PI3K γ; read-out: PI3K γ IC50, Table 4
  IC50: < 10 µM
PI3K δ; read-out: PI3K δ IC50
  IC50: < 10 µM
PI3K β; Table 4
  IC50: < 10 µM

## Nc1nc2cc(-c3ccc4ncc(N5CCC(O)CC5)cc4n3)ccc2o1 [Compound 613]
PI3K δ; read-out: PI3K δ IC50, Table 4
  IC50: < 10 µM
PI3K β; Table 4
  IC50: < 10 µM

## O=C(c1cnc2ccc(-c3cnc4cc[nH]c4c3)cn12)N1CCOCC1 [Compound 534]
PI3K α; in vitro
  IC50: < 10 µM
